We go through 18 compounds from patent US8378117B2 (priority 2005, dated 2013).

Like-named read-outs stand apart in the source and are kept apart here. Where only a bound is given, the exact number is not on record here.

For assay [1], the target named is T1, CB2 receptor (Homo sapiens, UniProt P34972).
T1 construct: expressed in transfected cells
As to the kind of experiment: Binding assay for CB2 agonists or inverse agonists (SK-N-MC membranes, [3H]-CP-55,940). In short, it runs like this:
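IC50 came from percent-inhibition data over several compound concentrations, fitted by linear regression. Binding used semi-purified membranes of human CB2-transfected SK-N-MC cells, 90 min at 30 °C, pH 7.5 Tris-HCl with MgCl2, EDTA and BSA, then filtration and scintillation counting.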

Assay [2] concerns the target T2, CB1 receptor (Homo sapiens, UniProt P21554).
T2 construct: expressed in transfected cells
As to the kind of experiment: Binding assay for CB1 agonists or inverse agonists (SK-N-MC membranes, [3H]-CP-55,940). The settings on record: for IC50: Cannabinoid CB1 Receptor Binding IC50, calculated by linear regression from percent inhibition at various test concentrations; for inhibition at 0.2 µM: read-out: CB1 receptor binding percent inhibition, test concentration 0.2 μM (footnote 2). In short, it runs like this: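 Radioligand displacement: [3H]-CP-55,940 at […], 90 min at 30° C, pH 7.5 Tris buffer with 0.5 mg/mL fatty-acid-free BSA, using semi-purified membranes of human-CB1-transfected SK-N-MC cells. Bound counts collected on GF/C filters, 10 uM WIN 55,212 for non-specific; IC50 from percent inhibition over several concentrations.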

Assay [3] has as its target T2, CB1 receptor. The assay is described as follows: cell-based. The essentials: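 Read-out is forskolin-driven CRE-β-gal reporter activity in stably transfected human-CB1 SK-N-MC cells, normalised to vehicle (100%); agonism lowers, inverse agonism raises signal. Values are EC50 (linear regression, multiple concentrations) or % change at one concentration.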
[4] abbreviates: read-out: CB2 receptor binding percent inhibition, test concentration 0.2 μM (footnote 2).
Where [5] appears, read: CB1 Receptor Functional Inverse Agonist EC50, forskolin induced β-galactosidase activity, SK-N-MC cells.
The mark [6] stands for this setting: CB1 Receptor Functional Agonist EC50, SK-N-MC cells, forskolin induced β-galactosidase activity.

T1 sequence (P34972 whole entry): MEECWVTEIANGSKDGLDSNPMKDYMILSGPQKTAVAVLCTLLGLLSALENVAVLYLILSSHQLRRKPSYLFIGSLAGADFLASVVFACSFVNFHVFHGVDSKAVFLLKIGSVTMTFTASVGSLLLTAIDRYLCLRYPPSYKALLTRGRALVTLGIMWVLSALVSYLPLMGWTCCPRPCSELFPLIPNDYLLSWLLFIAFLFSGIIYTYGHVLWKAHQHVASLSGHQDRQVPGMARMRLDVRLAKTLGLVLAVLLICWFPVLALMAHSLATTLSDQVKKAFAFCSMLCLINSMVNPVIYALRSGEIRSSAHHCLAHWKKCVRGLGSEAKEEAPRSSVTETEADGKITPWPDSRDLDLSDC
T2 sequence (P21554 whole entry): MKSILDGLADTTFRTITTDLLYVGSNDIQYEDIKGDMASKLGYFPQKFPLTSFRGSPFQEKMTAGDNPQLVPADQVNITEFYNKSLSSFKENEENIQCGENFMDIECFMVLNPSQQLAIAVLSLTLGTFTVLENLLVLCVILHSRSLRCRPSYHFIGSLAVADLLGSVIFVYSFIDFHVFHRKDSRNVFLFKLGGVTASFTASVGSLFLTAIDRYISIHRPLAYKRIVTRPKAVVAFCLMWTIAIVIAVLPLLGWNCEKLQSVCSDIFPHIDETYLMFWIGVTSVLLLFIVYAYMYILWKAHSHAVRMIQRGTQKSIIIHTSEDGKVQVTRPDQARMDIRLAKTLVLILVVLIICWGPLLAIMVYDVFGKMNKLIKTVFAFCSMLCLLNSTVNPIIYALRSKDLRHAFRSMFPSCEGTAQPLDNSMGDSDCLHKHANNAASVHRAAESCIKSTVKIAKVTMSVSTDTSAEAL

In general, IC50 refers to the midpoint of a concentration-inhibition curve. In general, EC50 refers to the concentration at which the effect is half-maximal. Consider `C[C@H](NC(=O)c1nn(-c2ccc(Cl)cc2Cl)c2c1CCCC/C2=C\c1ccc(F)cc1)c1ccccc1` [Cpd 149, (8E)-1-(2,4-dichloro-phenyl)-8-(4-fluoro-benzylidene)-1,4,5,6,7,8-hexahydro-cycloheptapyrazole-3-carboxylic acid [(1S)-1-phenyl-ethyl]-amide], for which the inhibition at 0.2 µM in assay [1] (setting [4]) worked out at 4%. Further, in assay [2], the IC50 was 100 nM and the inhibition at 0.2 µM came to 66%. In addition, in assay [3] (setting [5]), the concentration giving a half-maximal response (EC50) was found to be 60 nM.

In the case of `O=C(NN1CCCCC1)c1nn(-c2ccc(Cl)cc2Cl)c2c1CCCC/C2=C\c1ccc(F)cc1` [Cpd 150, (8E)-1-(2,4-dichloro-phenyl)-8-(4-fluoro-benzylidene)-1,4,5,6,7,8-hexahydro-cycloheptapyrazole-3-carboxylic acid piperidin-1-ylamide], the inhibition at 0.2 µM in assay [1] (setting [4]) is 3%. Further, in assay [2], the IC50 was 100 nM and the inhibition at 0.2 µM is 65%. The EC50 in assay [3] (setting [5]) was found to be 20 nM.

Consider `O=C(NN1CCOCC1)c1nn(-c2ccc(Cl)cc2Cl)c2c1CCCC/C2=C\c1ccc(F)cc1` [Cpd 151, (8E)-1-(2,4-dichloro-phenyl)-8-(4-fluoro-benzylidene)-1,4,5,6,7,8-hexahydro-cycloheptapyrazole-3-carboxylic acid morpholin-4-ylamide], for which the inhibition at 0.2 µM came out at 15% in assay [1] (setting [4]) and 51% in assay [2]. Besides, it took 60 nM to reach a half-maximal effect in assay [3] (setting [5]) (EC50).

As for `O=C(Nc1ccccn1)c1nn(-c2ccc(Cl)cc2Cl)c2c1CCCC/C2=C\c1ccc(Cl)cc1` [Cpd 152, (8E)-8-(4-chloro-benzylidene)-1-(2,4-dichloro-phenyl)-1,4,5,6,7,8-hexahydro-cycloheptapyrazole-3-carboxylic acid pyridin-2-ylamide], the inhibition at 0.2 µM was 21% in assay [1] (test concentration 0.2 μM (footnote 2), read-out: CB2 receptor binding percent inhibition) and 66% in assay [2]. In assay [2] (read-out: CB1 receptor binding percent inhibition, test concentration 0.0125 μM (footnote 13)), the inhibition at 0.0125 µM is 28%. Also, the “CB1 receptor binding percent inhibition” value in assay [2] (test concentration not stated) came to 47%. Besides, in assay [3] (forskolin induced β-galactosidase activity, SK-N-MC cells, read-out: CB1 Receptor Functional Inverse Agonist EC50), the concentration for a half-maximal effect (EC50) amounted to 200 nM.

With `O=C(NCc1ccccn1)c1nn(-c2ccc(Cl)cc2Cl)c2c1CCCC/C2=C\c1ccc(Cl)cc1` [Cpd 155, (8E)-8-(4-chloro-benzylidene)-1-(2,4-dichloro-phenyl)-1,4,5,6,7,8-hexahydro-cycloheptapyrazole-3-carboxylic acid (pyridin-2-ylmethyl)-amide], the inhibition at 0.2 µM in assay [1] (setting [4]) worked out at 8%; in assay [2], 72%. In assay [2], the IC50 is 70 nM. In assay [3] (setting [5]), the EC50 stood at 30 nM.

Take `O=C(NCc1ccncc1)c1nn(-c2ccc(Cl)cc2Cl)c2c1CCCC/C2=C\c1ccc(Cl)cc1` [Cpd 156, (8E)-8-(4-chloro-benzylidene)-1-(2,4-dichloro-phenyl)-1,4,5,6,7,8-hexahydro-cycloheptapyrazole-3-carboxylic acid (pyridin-4-ylmethyl)-amide]: the results for the inhibition at 0.2 µM in assay [1] (setting [4]) and in assay [2] were 36% and 50%, respectively. This compound also yielded a concentration giving a half-maximal response (EC50) in assay [3] (setting [5]) of 90 nM.

Regarding `O=C(NCCc1ccccn1)c1nn(-c2ccc(Cl)cc2Cl)c2c1CCCC/C2=C\c1ccc(Cl)cc1` [Cpd 157, (8E)-8-(4-chloro-benzylidene)-1-(2,4-dichloro-phenyl)-1,4,5,6,7,8-hexahydro-cycloheptapyrazole-3-carboxylic acid (2-pyridin-2-yl-ethyl)-amide], the inhibition at 0.2 µM in assay [1] (setting [4]) turned out to be 5%. In assay [2], the concentration for half-maximal inhibition (IC50) is 100 nM and the inhibition at 0.2 µM was found to be 68%. The EC50 in assay [3] (setting [5]) worked out at 40 nM.

As to `O=C(N[C@@H](CO)c1ccccc1)c1n[nH]c2c1CCCCC2Cc1cccc(Cl)c1` (stereo partly drawn) [Cpd 165, 8-(3-chloro-benzyl)-1,4,5,6,7,8-hexahydro-cycloheptapyrazole-3-carboxylic acid [(1R)-2-hydroxy-1-phenyl-ethyl]-amide], the inhibition at 0.2 µM in assay [1] (setting [4]) turned out to be 98%; in assay [2], 79%. A half-maximal response in assay [3] (setting [6]) (EC50) required 30 nM.

In the case of `O=C(N[C@@H](CO)Cc1ccccc1)c1n[nH]c2c1CCCCC2Cc1cccc(Cl)c1` (stereo partly drawn) [Cpd 167, 8-(3-chloro-benzyl)-1,4,5,6,7,8-hexahydro-cycloheptapyrazole-3-carboxylic acid [(1R)-1-benzyl-2-hydroxy-ethyl]-amide], the inhibition at 0.2 µM was 97% in assay [1] (setting [4]) and 57% in assay [2]. This compound also returned an EC50 in assay [3] (setting [6]) of 50 nM.

In the case of `O=C(N[C@H](CCl)c1ccccc1)c1nn(-c2ccc(F)cc2F)c2c1CCCCC2Cc1ccc(F)cc1` (stereo partly drawn) [Cpd 172, 1-(2,4-difluoro-phenyl)-8-(4-fluoro-benzyl)-1,4,5,6,7,8-hexahydro-cycloheptapyrazole-3-carboxylic acid [(1S)-2-chloro-1-phenyl-ethyl]-amide], the inhibition at 0.2 µM amounted to 41% in assay [1] (setting [4]) and 64% in assay [2]. In addition, in assay [3] (setting [5]), the EC50 was 100 nM.

`C[C@@H](NC(=O)c1nn(-c2ccc(S(N)(=O)=O)cc2)c2c1CCCC/C2=C\c1ccc(Cl)cc1)c1ccccc1` [Cpd 184, (8E)-8-(4-chloro-benzylidene)-1-(4-sulfamoyl-phenyl)-1,4,5,6,7,8-hexahydro-cycloheptapyrazole-3-carboxylic acid [(1R)-1-phenyl-ethyl]-amide]: the inhibition at 0.2 µM in assay [1] (setting [4]) was 27%. Besides, in assay [2], the IC50 was 50 nM and the inhibition at 0.2 µM stood at 78%. For the same compound, the half-maximal effective concentration (EC50) in assay [3] (setting [5]) amounted to 3 nM.

Turning to `C[C@@H](NC(=O)c1nn(-c2ccc(S(N)(=O)=O)cc2)c2c1CCCC/C2=C\c1ccc(Cl)cc1)C1CCCCC1` [Cpd 185, (8E)-8-(4-chloro-benzylidene)-1-(4-sulfamoyl-phenyl)-1,4,5,6,7,8-hexahydro-cycloheptapyrazole-3-carboxylic acid [(1R)-1-cyclohexyl-ethyl]-amide], the inhibition at 0.2 µM in assay [1] (setting [4]) was 56%; in assay [2], 75%. Also, in assay [2], the IC50 was 30 nM. In assay [3] (setting [5]), the EC50 was less than 3 nM.

As for `O=C(c1nn(-c2ccc(Cl)cc2Cl)c2c1CCCC/C2=C\c1ccc(F)cc1)N1CCCC1c1ccccn1` (centres unmarked) [Cpd 188, (8E)-[1-(2,4-dichloro-phenyl)-8-(4-fluoro-benzylidene)-1,4,5,6,7,8-hexahydro-cycloheptapyrazol-3-yl]-(2-pyridin-2-yl-pyrrolidin-1-yl)-methanone], the inhibition at 0.2 µM in assay [1] (setting [4]) was determined as 36%. In assay [2], the IC50 was 100 nM and the inhibition at 0.2 µM was determined as 64%. Moreover, in assay [3] (setting [5]), a half-maximal response (EC50) required 10 nM.

Take `C[C@@H](NC(=O)c1nn(-c2ccccc2Cl)c2c1CCCC/C2=C\c1ccc(Cl)cc1)C1CCCCC1` [Cpd 189, (8E)-8-(4-chloro-benzylidene)-1-(2-chloro-phenyl)-1,4,5,6,7,8-hexahydro-cycloheptapyrazole-3-carboxylic acid [(1R)-1-cyclohexyl-ethyl]-amide]: the figures for the inhibition at 0.2 µM in assay [1] (setting [4]) and in assay [2] were 17% and 78%, respectively. Further, the IC50 in assay [2] was 50 nM. This compound also came in with an EC50 in assay [3] (setting [5]) of 10 nM.

For the compound `C[C@@H](NC(=O)c1nn(-c2ccccc2Cl)c2c1CCCC/C2=C\c1ccc(Cl)cc1)c1ccccc1` [Cpd 190, (8E)-8-(4-chloro-benzylidene)-1-(2-chloro-phenyl)-1,4,5,6,7,8-hexahydro-cycloheptapyrazole-3-carboxylic acid [(1R)-1-phenyl-ethyl]-amide], the inhibition at 0.2 µM in assay [1] (setting [4]) was 12%. In assay [2], the IC50 was 80 nM and the inhibition at 0.2 µM was determined as 76%. In assay [3] (setting [5]), the EC50 came to 9 nM.

As to `C[C@H](NC(=O)c1nn(-c2cc(Cl)ccc2Cl)c2c1CCCC/C2=C\c1ccc(Cl)cc1)C1CCCCC1` [Cpd 197, (8E)-8-(4-chloro-benzylidene)-1-(2,5-dichloro-phenyl)-1,4,5,6,7,8-hexahydro-cycloheptapyrazole-3-carboxylic acid [(1S)-1-cyclohexyl-ethyl]-amide], in assay [1] (setting [4]), the inhibition at 0.2 µM amounted to 67%. Moreover, in assay [2], the IC50 is 30 nM and the inhibition at 0.2 µM was determined as 83%. Moreover, the half-maximal effective concentration (EC50) in assay [3] (setting [5]) was determined as 3 nM.

`CC[C@@H](NC(=O)c1nn(-c2ccc(Cl)cc2Cl)c2c1CCCC/C2=C\c1ccc(F)cc1)c1ccccc1` [Cpd 202, (8E)-1-(2,4-dichloro-phenyl)-8-(4-fluoro-benzylidene)-1,4,5,6,7,8-hexahydro-cycloheptapyrazole-3-carboxylic acid [(1R)-1-phenyl-propyl]-amide]: the inhibition at 0.2 µM in assay [1] (setting [4]) was determined as 9%. In addition, in assay [2], the IC50 was 10 nM and the inhibition at 0.2 µM amounted to 91%. In assay [3] (setting [5]), the EC50 was 9 nM.

For `O=C(N[C@H](CO)c1ccccc1)c1nn(-c2ccc(Cl)cc2Cl)c2c1CCCC/C2=C\c1ccc(F)cc1` [Cpd 204, (8E)-1-(2,4-dichloro-phenyl)-8-(4-fluoro-benzylidene)-1,4,5,6,7,8-hexahydro-cycloheptapyrazole-3-carboxylic acid [(1S)-2-hydroxy-1-phenyl-ethyl]-amide], the inhibition at 0.2 µM in assay [1] (setting [4]) came out at 34%. In assay [2], the IC50 was 30 nM and the inhibition at 0.2 µM was determined as 88%. In assay [3] (setting [5]), the EC50 worked out at 3 nM.
